“Also recorded” adds a separate entry of the source.
Columns and labels:
[1] = target: T1, 17β-HSD3 (Homo sapiens, UniProt P37058); assay: 17β-HSD3 activity in intact transfected HEK-293 cells; type: cell-based; conditions: for 17β-HSD3 intact inhibition class (n.i.): rest activity at 20 μM, Table 3
T1 construct: expressed in transfected cells; host or cells: HEK-293 (transient, calcium phosphate), intact cells
T1 sequence (P37058 1-310): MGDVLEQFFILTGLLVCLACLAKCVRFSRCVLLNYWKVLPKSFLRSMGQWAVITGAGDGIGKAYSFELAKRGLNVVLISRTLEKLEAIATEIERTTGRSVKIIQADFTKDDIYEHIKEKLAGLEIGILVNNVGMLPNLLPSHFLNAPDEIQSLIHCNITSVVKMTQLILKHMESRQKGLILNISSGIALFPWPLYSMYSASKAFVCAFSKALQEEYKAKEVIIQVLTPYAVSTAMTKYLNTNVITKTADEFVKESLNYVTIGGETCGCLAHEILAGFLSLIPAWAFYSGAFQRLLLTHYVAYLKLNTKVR
Description: (§1) Human embryonic kidney cells (HEK-293) were cultivated in DMEM containing 4.5 g/L glucose, 10% fetal bovine serum, 100 U/mL penicillin, 0.1 mg/mL streptomycin, 1× MEM nonessential amino acids, and 10 mM HEPES buffer, pH 7.4. The cells were incubated at 37 °C until 80% confluency. The cells were transfected using the calcium phosphate method with expression plasmids for 17β-HSD2 and 17β-HSD3. After 24 h, the cells were trypsinized and seeded on poly-L-lysine-coated 96-well plates (15 000 cells/well).
(§2) The inhibitory activities were measured 24 h after seeding as follows: old medium was aspirated and replaced by 30 μL of charcoal-treated DMEM (cDMEM). Ten microliters of inhibitor dissolved in cDMEM into the respective concentration was added, and mixtures were preincubated at 37 °C for 20 min. 17β-HSD2 inhibitory activities were measured in the presence of 190 nM unlabeled estradiol and 10 nM radiolabeled estradiol. N-(3-Methoxyphenyl)-N-methyl-5-m-tolylthiophene-2-carboxamide (compound 19 in ref ([26])) was used as positive control. The reaction mixtures were incubated for 20 min, and the reactions were stopped by adding an excess of estradiol and estrone (1:1, 2 mM in methanol) to the mixture.
17β-HSD3 inhibitory activities were measured in the presence of 190 nM unlabeled androstenedione and 10 nM radiolabeled androstenedione. Benzophenone-1 was used as positive control. The reaction mixtures were incubated for 30 min, and the reactions were stopped by adding an excess of androstenedione and testosterone (1:1, 2 mM in methanol). The steroids were separated by TLC, followed by scintillation counting and calculation of substrate concentration. Data was obtained from three independent measurements.

[2] = target: T2, 17β-HSD1 (Homo sapiens, UniProt P14061); assay: 17β-HSD1 activity in HEK-293 cell lysates; type: biochemical; conditions: ratio of IC50 values
T2 construct: expressed in transfected cells; host or cells: HEK-293 (transient, calcium phosphate), lysate
T2 sequence (P14061 1-328): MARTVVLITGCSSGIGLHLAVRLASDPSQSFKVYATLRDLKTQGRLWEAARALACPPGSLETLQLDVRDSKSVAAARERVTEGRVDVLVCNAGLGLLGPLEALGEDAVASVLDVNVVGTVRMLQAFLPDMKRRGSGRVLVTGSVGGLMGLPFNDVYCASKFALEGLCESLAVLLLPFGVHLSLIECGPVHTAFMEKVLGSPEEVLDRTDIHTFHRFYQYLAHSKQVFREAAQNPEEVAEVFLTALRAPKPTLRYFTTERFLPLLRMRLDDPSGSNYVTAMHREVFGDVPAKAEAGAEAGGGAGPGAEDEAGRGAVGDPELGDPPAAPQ
Description: HEK-293 cells were transfected by the calcium phosphate precipitation method with plasmids for human 17β-HSD1, 17β-HSD2, or 11β-HSD2. Cells were cultivated for 48 h, washed with phosphate-buffered saline, and centrifuged for 4 min at 150g. After removal of the supernatants, cell pellets were snap frozen in dry ice and stored at −80 °C until further use.
Lysates of human embryonic kidney cells (HEK-293) expressing either 17β-HSD1 or 17β-HSD2 were incubated for 10 min at 37 °C in TS2 buffer in a final volume of 22 μL containing either solvent (0.2% DMSO/chloroform) or the inhibitor at the respective concentration. N-(3-Methoxyphenyl)-N-methyl-5-m-tolylthiophene-2-carboxamide (compound 19 in ref ([26])) and apigenin[50] were used as positive controls for 17β-HSD1 and 17β-HSD2, respectively, in all experiments. 17β-HSD1 activity was measured in the presence of 190 nM unlabeled estrone, 10 nM radiolabeled estrone, and 500 μM NADPH. In contrast, 17β-HSD2 activity was determined in the presence of 190 nM unlabeled estradiol, 10 nM radiolabeled estradiol, and 500 μM NAD^+. Reactions were stopped after 10 min by adding an excess of unlabeled estradiol and estrone (1:1, 2 mM in methanol). Possible promiscuous enzyme inhibition by aggregate formation of the chemicals was excluded by measuring the inhibition of the enzyme activity by the compounds in the presence of 0.1% Triton X-100.[36] […]

[3] = target: T3, 11β-HSD1 (Homo sapiens, UniProt P28845); assay: 11β-HSD1 activity in lysates of stably transfected cells; type: biochemical; conditions: for 11β-HSD1 versus 17β-HSD2 potency (in words): lysates
T3 construct: expressed in transfected cells
T3 sequence (P28845 whole entry): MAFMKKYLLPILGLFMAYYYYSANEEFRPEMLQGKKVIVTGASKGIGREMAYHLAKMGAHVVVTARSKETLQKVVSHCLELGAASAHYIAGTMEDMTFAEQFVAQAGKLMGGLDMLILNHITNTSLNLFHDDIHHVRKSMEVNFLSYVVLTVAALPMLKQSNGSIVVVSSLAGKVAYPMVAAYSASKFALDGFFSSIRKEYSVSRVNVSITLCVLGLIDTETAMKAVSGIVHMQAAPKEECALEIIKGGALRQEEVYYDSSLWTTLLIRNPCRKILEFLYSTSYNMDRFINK
Description: The methods to determine 11β-HSD1 and -2 activity were performed as described previously.[64] Briefly, lysates of stably transfected cells, expressing either 11β-HSD1 or 11β-HSD2, were incubated for 10 min at 37 °C in TS2 buffer in a final volume of 22 μL containing either solvent (0.2% DMSO) or the inhibitor at the respective concentration. The nonselective 11β-HSD inhibitor glycyrrhetinic acid was used as positive control. Activity measurements of 11β-HSD1 were performed with 190 nM unlabeled cortisone, 10 nM radiolabeled cortisone, and 500 μM NADPH. To measure 11β-HSD2 activity, lysates were incubated with 40 nM unlabeled cortisol, 10 nM radiolabeled cortisol, and 500 μM NAD^+. Reactions were stopped after 10 min by adding an excess of unlabeled cortisone and cortisol (1:1, 2 mM in methanol). The steroids were separated by TLC, followed by scintillation counting and calculation of substrate concentration. Data were collected from at least three independent measurements.

[4] = target: T4, 17β-HSD2 (Homo sapiens, UniProt P37059); assay: 17β-HSD2 activity in intact transfected HEK-293 cells; type: cell-based; conditions: intact HEK-293 cells
T4 construct: expressed in transfected cells; host or cells: HEK-293 (transient, calcium phosphate), lysate
T4 sequence (P37059 1-387): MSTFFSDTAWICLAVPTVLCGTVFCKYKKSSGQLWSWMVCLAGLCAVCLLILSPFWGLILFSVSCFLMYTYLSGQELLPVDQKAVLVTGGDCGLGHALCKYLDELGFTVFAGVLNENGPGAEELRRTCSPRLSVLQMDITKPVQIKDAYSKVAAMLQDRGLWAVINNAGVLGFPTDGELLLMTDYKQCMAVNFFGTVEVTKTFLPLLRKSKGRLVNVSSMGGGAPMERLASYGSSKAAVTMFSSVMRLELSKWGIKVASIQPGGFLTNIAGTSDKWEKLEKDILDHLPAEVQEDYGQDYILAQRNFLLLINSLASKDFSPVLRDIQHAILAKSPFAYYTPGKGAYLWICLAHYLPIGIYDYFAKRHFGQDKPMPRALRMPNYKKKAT
Description: as §1, §2

With `Cc1cc(S(=O)(=O)Nc2cccc(O)c2)c(C)cc1Cl` [Compound 22] the “17β-HSD3 inhibition (in words)” value ([1]; intact cells) was “weak 17β-HSD3 inhibitors” and the “selectivity: more active toward 17β-HSD2 than 17β-HSD1” value [2] was 18 fold.

For `CC(C)(C)c1ccc(S(=O)(=O)Oc2ccccc2O)cc1` [Compound 12], the “selectivity 17β-HSD3 against 17β-HSD2” value ([1]; ratio of IC50 values) was 35 fold, the “selectivity 11β-HSD1 against 17β-HSD2” value ([3]; ratio of IC50 values) was 9 fold and the “17β-HSD2 inhibition in intact cells (in words)” value [4] was “concentration-dependently inhibited 17β-HSD2”.

`COc1ccc(S(=O)(=O)Nc2ccc(O)c3c2CCCC3)cc1` [Compound 20] was tested, and the “17β-HSD3 intact inhibition class (n.i.)” value [1] was “n.i” and the “11β-HSD1 versus 17β-HSD2 potency (in words)” value [3] was “almost equipotent toward 17β-HSD2 and 11β-HSD1; also recorded: equipotent 17β-HSD2 and 11β-HSD1 inhibitors”.

In the case of `COc1ccc(S(=O)(=O)Nc2cccc(O)c2)c2c1CCCC2` [Compound 23], the “17β-HSD3 intact inhibition class (n.i.)” value [1] was “n.i” and the “11β-HSD1 versus 17β-HSD2 potency (in words)” value [3] was “almost equipotent toward 17β-HSD2 and 11β-HSD1; also recorded: equipotent 17β-HSD2 and 11β-HSD1 inhibitors”.
